Data set [1] deals with RPMI8226, U266, and NCI-H929 multiple myeloma cell lines. In words: Apoptosis in multiple myeloma cells, combined with bortezomib (propidium iodide, FACScan). The data set is classed as cell-based, human. Particulars: 24 hours. How it is done:
A study was conducted to evaluate the effect of a compound of Formula (I) combined with bortezomib in inducing apoptosis in multiple myeloma cells.
To detect cell cycle progression, cells were incubated with or without the indicated agent for 24 hours, washed twice with ice-cold PBS, collected by centrifugation, and fixed in 70% (v/v) ethanol for 2 hours at −20° C. They were subsequently incubated for 30 minutes at room temperature with 0.2 mL of deoxyribonucleic acid (DNA) extraction buffer (0.2 M Na2HPO4 and 0.1 M citric acid buffer, pH 7.8), re-suspended in 1 mL of propidium iodide staining buffer (0.1% Triton X-100, 100 μg/mL of RNase A, and 80 μg/mL of propidium iodide in PBS), incubated at 37° C. for 30 minutes in darkness, sorted by FACScan, and analyzed using CellQuest software (BD Biosciences).
(§1) The study was performed according to the protocol reported in Hsieh et al., Cell Death and Disease, 2014, April; 5:e1166.

In data set [2] the test system is RPMI-8226 Multiple myeloma. In words: Tumor growth inhibition, RPMI-8226 xenograft. Format: in vivo, athymic nude mice. Particulars: 50 mg/kg, qd. How it is done:
(§2) An in vivo study was conducted to evaluate the efficacy of compounds of Formula (I) in suppressing tumor growth in multiple human cancer types.
(§3) Eight-week-old athymic nude mice were group-housed under conditions of constant photoperiod (12 h light/12 h dark at 21-23° C. and 60-85% humidity) with ad libitum access to sterilized food and water. All animal experiments followed ethical standards, and protocols were reviewed and approved by the Animal Use and Management Committee of National Taiwan University. Each mouse was inoculated subcutaneously with 1×10^6˜1×10^7 human cancer cells in a total volume of 0.1 mL serum-free medium containing 50% Matrigel (BD Biosciences). As tumors became established (˜100 mm^3), mice were randomized to various groups to be treated with pre-determined materials (n=6-8/group): (i) control group: 0.5% DMSO/0.5% Cremophor/90% D5W and (ii) treatment groups: Compounds 12 and 28 at pre-determined doses daily. Mice received treatment by intraperitoneal injection for the duration of the study. Tumors were measured weekly using calipers. Tumor size, in mm^3, was calculated according to the formula: Tumor volume=(w^2×l)/2, where w and 1 respectively represent the width and length (both in mm) of the tumor.

The test system of data set [3] is APP in pCAX APP 695 plasmid-transfected Neuro 2a cells. Kind of data set: Amyloid precursor protein (APP) levels, Western blot. The data set is classed as cell-based. Particulars: pCAX APP 695 transfected neuro 2a cells; 0.1-10 μM, 24 hours. How it is done: (§4) A study was conducted to evaluate the effect of compounds of Formula (I) in amyloid precursor protein (APP) levels and Aβ42 production.
Neuro 2a cells (1×10^6) in 6-well plates were transfected with pCAX APP 695 plasmid for 24 hours, then incubated for another 24 hours with Compound 12, Compound 28, or tubasatin A (0.1-10 μM). Cells were then harvested and cell lysates were prepared for Western blot analysis of the APP proteins.

Data set [4] relates to BJAB Burkitt lymphoma-derived B-cell. In words: Tumor growth inhibition, BJAB xenograft. The data set is classed as in vivo, athymic nude mice. Particulars: qd, intraperitoneal. The procedure: as §2, §3
The test system of data set [5] is A549 lung cancer cell line. Kind of data set: Antiproliferative activity, A549. Format: cell-based, human. The following applies: Homo sapiens. The procedure: (§5) A study was conducted to evaluate the inhibitory activity of compounds of Formula (I) in inhibiting HDAC6, antiproliferative activity of test compounds in suppressing cancer cell growth, and selectivity of inhibiting HDAC6 over other HDAC isoforms.
as §1
(§6) Shown in Table 2 below are antiproliferative activities (measured by their half maximal concentration for inhibiting cell growth, i.e., GI50) of the test compounds against various cancer cell lines.

Data set [6] can be described thus: Safety in ICR mice, 7-day intraperitoneal dosing. Format: in vivo. Particulars: 50, 100, and 200 mg/kg intraperitoneally once a day for 7 days, monitored another 7 days. The procedure:
In addition, both Compounds 12 and 28 were studied to evaluate their safety in animals.
[…]. The animals were dosed intraperitoneally once a day for 7 days and then monitored for another 7 days. The animals were weighed daily for 1 week and then twice weekly.

Data set [7] relates to acetyl-a-tubuline expression in RPMI8226, U266, and NCI-H929. In words: Acetyl-a-tubuline expression in multiple myeloma cell lines (immunoblotting). Format: cell-based, human. The procedure:
A study was conducted to evaluate the activity of a compound of Formula (I) in increasing acetyl-a-tubuline expression in human multiple myeloma cell lines (RPMI8226, U266, and NCI-H929).
Cells (1×10^6) were incubated for 10 minutes at 4° C. in a lysis buffer solution in a culture vessel, and then scraped off the culture vessel, incubated on ice for another 10 minutes, and centrifuged at 17,000×g for 30 minutes at 4° C. Protein samples (80 μg) were electrophoresed on SDS gels and transferred onto a nitrocellulose membrane, which was blocked by incubation with 5% fat-free milk in phosphate-buffered saline (PBS) for 30 minutes at room temperature. Immunoblotting was performed by overnight incubation at 4° C. with primary antibodies in PBS, followed by incubation for 1 hour at room temperature with horseradish peroxidase (HRP)-conjugated secondary antibodies, then bound antibodies were measured using enhanced chemiluminescence (ECL) reagent (Advansta Corp., Menlo Park, Calif., USA) and exposure to photographic film.
The study was performed according to the protocol reported in Yang et al., Journal of Molecular Medicine, 2014, November; 92(11):1147-1158.

The target of the next data set is T1, HDAC1 (Homo sapiens, UniProt Q13547).
T1 construct: purchased BPS Bioscience Corp
In words: Fluorogenic HDAC assay, HDAC1. The following applies: recombinant HDAC1; read-out: Enzyme IC50 HDAC1. The data set is classed as biochemical. An excerpt: Of note, there are eighteen human HDACs. Eleven of them, designated as HDAC1-11, are zinc-dependent. Seven of them, designated as Sirt1-7, are NAD+-dependent.
Fluorogenic HDAC assay kits were used to assess the ability of HDAC inhibitors to inhibit deacetylation of lysine residues on a substrate by recombinant proteins HDAC1, 3, 4, 5, 6, 7, 8, 9 and Sirt1 according to the manufacturer's instructions (BPS Bioscience Corp., San Diego, Calif., USA).

Data set [8] relates to Aβ42 production in pCAX APP 695 plasmid-transfected Neuro 2a and SH—SYSY cells. Kind of data set: Aβ42 production in cell culture supernatants. Format: cell-based. The following applies: pCAX APP 695 transfected Neuro 2a and SH—SYSY cells; 0.1-10 μM, 24 hours. The procedure:
as §4
Moreover, neuro 2a or SH—SYSY cells (1×10^5) were transfected with pCAX APP 695 plasmid for 24 hours, followed by incubation with Compound 12 or Compound 28 (0.1-10 μM) for another 24 hours. Cell culture supernatants were assayed for Aβ42 production.

Data set [9] has as its system T98 Glioblastoma cell line. In words: Antiproliferative activity, T98. The data set is classed as cell-based, human. The following applies: Homo sapiens, T98, T98. How it is done: as §5, §1, §6

Results on 1 compound are retold here after US11427544B2, “Histone deacetylase 6 inhibitors and use thereof” (TAIPEI MEDICAL UNIVERSITY, priority 2016, dated 2022).

T1 sequence (Q13547 whole entry): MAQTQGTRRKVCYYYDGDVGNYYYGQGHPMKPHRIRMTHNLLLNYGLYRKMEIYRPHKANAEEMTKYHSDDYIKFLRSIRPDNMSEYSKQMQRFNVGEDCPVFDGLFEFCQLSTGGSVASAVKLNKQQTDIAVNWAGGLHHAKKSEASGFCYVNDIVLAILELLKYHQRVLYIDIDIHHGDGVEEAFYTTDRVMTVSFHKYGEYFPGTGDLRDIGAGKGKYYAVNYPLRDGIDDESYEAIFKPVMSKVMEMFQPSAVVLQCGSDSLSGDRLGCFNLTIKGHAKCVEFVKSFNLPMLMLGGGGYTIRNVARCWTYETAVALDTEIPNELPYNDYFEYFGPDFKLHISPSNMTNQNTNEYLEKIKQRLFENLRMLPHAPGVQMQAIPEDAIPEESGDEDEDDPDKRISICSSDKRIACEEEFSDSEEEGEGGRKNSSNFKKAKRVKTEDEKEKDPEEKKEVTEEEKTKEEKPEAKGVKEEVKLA

Turning to `O=C(NO)c1ccc(CNc2cccc3cccnc23)cc1` [Compound 28, N-hydroxy-4-((quinolin-8-ylamino)methyl)benzamide], the induction of apoptosis result in data set [1] is “synergistically induced apoptosis”. Also, the “Best Response” value in [2] (CR: complete regression) is 2 × CR^a. The “% TGI” value in data set [2] (intraperitoneal) is reported as 80.0%; in data set [4] (25 mg/kg), 40.8%; in [4] (50 mg/kg), 74.0%. Further, the APP expression entry in [3] is recorded as “markedly reduced the APP expression”. For the same compound, the 50% growth inhibitory concentration (GI50) in data set [5] worked out at 5.24 ± 0.18 µM; in [9] it was 9.89 ± 0.92 µM. Besides, the tolerability result in [6] is given as “well tolerated”. Also, in [7], the acetyl-a-tubuline expression entry is recorded as “increasing acetyl-a-tubuline expression in a dose-dependent manner”. For the same compound, at HDAC1, the 50% inhibitory concentration (IC50) stood at 6.7 µM. For the same compound, the Aβ42 production result in data set [8] is “decreased Aβ42 production”.
